Columns and labels:
Format in all cases: cell-based
HeLa cells [1] = assay: Doxorubicin uptake by flow cytometry of doxorubicin fluorescence, with and without the flow electroporator device; details: HeLa cells in EMEM, 40 nM doxorubicin, 500 ml/min, 300 V/cm, 200 V/cm, normalized to no electroporation
Procedure: (§1) FIGS. 6A-G show drug delivery via electroporation. […] Cell cycle analysis is performed using flow cytometry and propidium iodide staining of chromosomal DNA. […] Error bars are standard deviation of triplicate experiments. Asterisk indicates p-value≤0.01 versus untreated control. FIGS. 6D-G show increased delivery of doxorubicin into HeLa cells via electroporation. […] Data are normalized to 1 for doxorubicin fluorescence of HeLa cells incubated with 40 nM doxorubicin without electroporation. Error bars are standard deviation of triplicate experiments. Asterisk indicates p-value≤0.01 versus no electroporation.
(§2) Another utility of the flow electroporator device is drug delivery during hemodialysis. Due to the unique cancer hallmarks of CTCs, many chemotherapeutic agents can be used for their selective targeting. […] Electroporation by the flow electroporator device enhanced doxorubicin uptake by CTCs by more than 4 fold (FIG. 6D-G). An advantage of drug delivery during hemodialysis is the subsequent removal of excess chemotherapeutic agents, thereby minimizing unnecessary side effects to cancer patients.

HeLa cells [2] = assay: Cell cycle analysis by flow cytometry and propidium iodide staining of chromosomal DNA; details: HeLa cells as mocked CTCs, 40 nM doxorubicin for 24 hrs
Procedure: as §1, §2

HeLa cells [3] = assay: Confocal fluorescence imaging of intracellular lipid droplets in cells incubated with blood plasma; details: blood plasma and 10 μM A922500 for 24 hrs
Procedure: (§3) FIGS. 7A-H show A922500, a DGAT1 inhibitor, reduces the viability of CTCs in blood plasma. […] Cell viability is assayed with crystal violet staining and visualized at low resolution (left column) and high resolution (right column). […] Error bars are standard deviation of triplicate experiments. Asterisk indicates p-value≤0.01 versus culturing in EMEM medium. […] Control HeLa cells cultured in EMEM medium is presented in the top panel. HeLa cells incubated with blood plasma for 24 hrs is presented in the bottom panel. […] Images are control untreated HeLa cells cultured with EMEM medium (first panel); HeLa cells cultured in EMEM medium and treated with 10 μM A922500, a small-molecule inhibitor of diacylglycerol O-acyltransferase 1 (DGAT1), for 24 hrs (second panel); HeLa cells incubated with blood plasma for 24 hrs (third panel); and HeLa cells incubated with blood plasma and 10 μM A922500 for 24 hrs (fourth panel). FIGS. 7F-H show viability of HeLa cells following incubation with blood plasma or blood plasma and A922500. Cell viability is assayed with crystal violet staining and visualized at low resolution (FIG. 7F) and high resolution (FIG. 7G). […] Error bars are standard deviation of triplicate experiments. Single asterisk indicates p-value≤0.01 versus untreated control HeLa cells cultured with EMEM. […]

HeLa cells [4] = assay: Cell viability by crystal violet staining after incubation with blood plasma and A922500; details: blood plasma and A922500, versus blood plasma alone for 24 hrs
Procedure: as §3

Structure (SMILES) | enhancement of doxorubicin uptake by CTCs by electroporation (HeLa cells [1]) | effect on cell cycle of CTCs (HeLa cells [2]) | lipid droplet accumulation in CTCs incubated with blood plasma (HeLa cells [3]) | viability of CTCs in blood plasma (HeLa cells [4])
COc1cccc2c1C(=O)c1c(O)c3c(c(O)c1C2=O)C[C@@](O)(C(=O)CO)C[C@@H]3O[C@H]1C[C@H](N)[C@H](O)[C@H](C)O1 [doxorubicin] | more than 4 fold | cell cycle arrest |  | 
O=C(Nc1ccccc1)Nc1ccc(-c2ccc(C(=O)[C@@H]3CCC[C@H]3C(=O)O)cc2)cc1 [A922500] |  |  | inhibited lipid droplet accumulation | further reduced the viability
